Reference: ChEMBL document CHEMBL5365429, “Discovery of 5-sulfonyltetrazoles as neuroblastoma differentiation agents” (Bioorg Med Chem Lett, 2023)
The source made the active and inactive calls. The rule behind the calls is not given here.

What was measured:
Format in all cases: functional, cell-based
[1] = test system: BE(2)-C; test: Induction of neuron differentiation in human BE2C cells assessed as neurite outgrowth by measuring neurite length at 25 uM measured after 4 days; conditions: time 4.0 day
[2] = test system: BE(2)-C; test: Induction of neuron differentiation in human BE2C cells assessed as neurite outgrowth by measuring neurite length; conditions: dose 50-200 µM
[3] = test system: BE(2)-C; test: Induction of neuron differentiation in human BE2C cells assessed as neurite outgrowth by measuring neurite length at 25 uM by imaging analysis
[4] = test system: BE(2)-C; test: Antiproliferative activity against human BE2C cells assessed as reduction in cell viability at 25 uM
[5] = test system: BE(2)-C; test: Antiproliferative activity against human BE2C cells assessed as reduction in cell viability; conditions: dose 50-200 µM
[6] = test system: BE(2)-C; test: Induction of neuron differentiation in human BE2C cells assessed as neurite outgrowth by measuring neurite length at 25 uM
[7] = test system: BE(2)-C; test: Antiproliferative activity against human BE2C cells assessed as reduction in cell viability at 25 uM measured after 4 days; conditions: time 4.0 day

Compound | Activity [1] | further results
C=CCSc1nnnn1C | inactive | 
Cn1nnnc1S(C)(=O)=O | Active | 
Cn1nnnc1S(=O)(=O)CC1CCC1 | Active | 
CCCSc1nnnn1C | inactive | 
Cn1nnnc1SCC1CC1 | inactive | 
CSc1nnnn1C | inactive | 
CCCS(=O)(=O)c1nnnn1C | Active | 
Cn1nnnc1SCC#C[Si](C)(C)C | inactive | 
CCS(=O)(=O)c1nnnn1C |  | Activity [2]: Dose-Dependent Effect; Activity [3]: Active; Activity [4]: Active; Activity [5]: Dose-Dependent Effect; Activity [6]: Active
C=CCS(=O)(=O)c1nnnn1C | Active | Activity [7]: Active
Cn1nnnc1SCC1CCC1 | inactive | 
CCSc1nnnn1C | inactive | 
